Ends that are not written are not given here.

One data set relates to diabetic db/db mice. The data set is described as follows: In-vivo study in mice of blood-glucose lowering effects of GLP-1 polymer conjugates. The following applies: for blood glucose-lowering effect: single subcutaneous dose (GLP-1 60, 120 μg; conjugates 420 μg), FIG. 14; for PD effect when compared to the 20 kiloDalton PEG conjugate: single subcutaneous dose 420 μg. Also on record: species or system mouse. As for the experimental part: Male diabetic mice (BKS.Cg-+Lepr db/+Lepr db/01aHsd) were purchased from Harlan Laboratories, Ltd. (Jerusalem, Israel). The 8-9 week old animals (30-40 gm) were placed in mouse cages (two animals per cage), and allowed at least 48 hours of acclimatization before the start of the study.
Each compound was accurately weighed into a glass vial and dissolved in normal saline in order to prepare a concentration that would accommodate for the dose (based on GLP-1 equivalents) and the injection volume of 100 μL.
The study was divided into two phases: a feasibility phase and an evaluation phase.
In the feasibility phase, the feasibility of using diabetic db/db mice to test the effectiveness of GLP-1 was first evaluated. In carrying out the feasibility phase, several groups of mice were used wherein four mice were used in each group. Data on the baseline glucose levels were gathered for each mouse for 2-3 days prior to drug dosing. This was performed to identify any outliers in the group of animals. On the day of treatment (Day 0) each animal was weighed. A time 0 day blood sample (5 to 10 μL) was collected from the tail vein. The glucose level (mg/dL) was measured using a glucose analyzer. Each animal was then dosed subcutaneously (SC) below the skin on the back. […] The animals were then allowed to return into their cages. Blood samples of 5 to 10 μL (<0.5% of 2 mL blood volume for a 35 g mouse) were removed through a needle prick/capillary tube at the following time points: −3, −2, −1, 0, 0.04, 0.16, 0.33, 1.0, 1.16 days. Each collected blood sample was tested for its glucose level. At the end of the study, the animals were humanely euthanized by carbon-dioxide asphyxiation.
In the evaluation phase, the results from the feasibility phase were used to select the appropriate doses required to attain a sustained delivery of GLP-1 for a 3-5 day effect. In carrying out the evaluation phase, eight mice were used in each group. Data on the baseline glucose levels were gathered for each mouse three days prior to drug dosing. On the day of treatment (Day 0) each animal was weighed. A time 0 day blood sample (5 to 10 μL) was collected from the tail vein. The glucose level (mg/dL) was measured using a glucose analyzer. Each animal was then dosed subcutaneously (SC) below the skin on the back. […] The animals were then allowed to return into their cages. Blood samples of 5 to 10 μL (<0.5% of 2 mL blood volume for a 35 g mouse) were removed through a needle prick/capillary tube at the following time points: −3, −2, −1, 0, 0.04, 0.16, 0.33, 0.5, 1, 2, 3, 6 days. Each collected blood sample was tested for its glucose level. Food was withdrawn from the animals for the first four hours after dosing. At the end of the study, the animals were humanely euthanized by carbon-dioxide asphyxiation.

A short description of data set [1]: Cleavable nature of GLP-1 conjugate in aqueous media (50 mM Tris, pH 10, overnight at 50° C.), SDS-PAGE / reverse phase HPLC. The following applies: 50 mM Tris solution. Type of data set: physicochemical.
Experimental: The column was a 100 mm×2.1 mm ID Betasil C18 column with 5 μm particles, available from Thermo Electron Corp. Reverse phase HPLC used a mobile phase of 0.1% TFA in deionized water (solution C) and 0.1% TFA in acetonitrile (solution D) conducted at 37° C. The gradient used for reverse phase HPLC was as follows: for time 0.00 to 20.00 minutes, 35% of the mobile phase contained solution D; for time 20.00 to 21.00 minutes, 55% of the mobile phase contained solution D; for time 21.00 to 23.00 minutes, 80% of the mobile phase contained solution D; for time 23.00 to 24.00 minutes, 80% of the mobile phase contained solution D; for time 24.00 to 25.00 minutes, 35% of the mobile phase contained solution D; for time 25.00 and above, 35% of mobile phase contained solution D.

Consider “G2PEG2Fmoc20K-Lys-GLP-1: G2PEG2Fmoc20k-NHS covalently and releasably attached to a lysine position of GLP-1 (HAEGTFTSDVSSYLEGQAAKEFIAWLVKGR; ends and bridges not checked; also: releasable G2PEG2Fmoc20K PEG on a lysine; UniProt P01275 98-127, looked up)”, for which the blood glucose-lowering effect entry in the data set with diabetic db/db mice is reported as “confirmed”.
For the substance “G2PEG2Fmoc40K-Lys-GLP-1: G2PEG2Fmoc40k-NHS covalently and releasably attached to a lysine position of GLP-1 (HAEGTFTSDVSSYLEGQAAKEFIAWLVKGR; ends and bridges not checked; also: releasable G2PEG2Fmoc40K PEG on a lysine; UniProt P01275 98-127, looked up)”, in the data set with diabetic db/db mice, the “PD effect when compared to the 20 kiloDalton PEG conjugate” value was “small but extended PD effect” and the blood glucose-lowering effect entry is reported as “confirmed”.
Take G2PEG2Fmoc40k-N^ter-GLP-1: the “release of GLP-1 from the conjugate” value in data set [1] is “complete release”. Further, the “PD effect when compared to the 20 kiloDalton PEG conjugate” value with diabetic db/db mice is recorded as “small but extended PD effect”.
As for “Glucagon-like Peptide I (7-36, “GLP-1”) [reference compound]”, the blood glucose-lowering effect result in the data set on diabetic db/db mice was “confirmed”. Further, the “clearance from the mouse (from pharmacodynamic measurements)” value with diabetic db/db mice (subcutaneous) was “cleared rapidly”.

(Values after patent US9381254B2, “Methods for preparing polymeric reagents” (Nektar Therapeutics, priority 2005, dated 2016).)
